Data taken from patent US20260193271A1, “PAN-KRAS INHIBITOR COMPOUND” (ADLAI NORTYE BIOPHARMA CO., LTD., priority 2022, published 2026).

Key:
SW480 (G12V) = assay: In vitro cell proliferation inhibition test (CellTiter-Glo), SW480; type: cell-based; settings: SW480 colon cell line, KRAS (p.G12V), 72 h co-incubation
Method in brief: (§1)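 Cells were seeded at 1000-5000/well by doubling time and cultured overnight at 37 °C, 5% CO2. They were then exposed for 72 h to 10-point, 3-fold compound dilutions (final top 10 μM), and viability was read by CellTiter-Glo luminescence. IC50 came from normalized signals fitted by four-parameter regression.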

AsPC-1 (G12D) = assay: In vitro cell proliferation inhibition test (CellTiter-Glo), AsPC-1; type: cell-based; settings: KRAS (p.G12D), 72 h co-incubation
Method in brief: as §1

[1] = Homo sapiens, ASPC1, AsPC-1 pancreas cell line

Compound `CCn1c(-c2cc(-c3ncc(CN4CCS(=N)(=O)CC4)cn3)cnc2[C@H](C)OC)c2c3cc(ccc31)-c1csc(n1)C[C@H](NC(=O)[C@H]1C[C@@H]1C)C(=O)N1CCC[C@H](N1)C(=O)OCC(C)(C)C2` (atropisomer, axis not shown) [Compound 49, (1S,2S)-N-((6^3S,4S,Z)-1^1-ethyl-1^2-(5-(5-((1-imino-1-oxido-1λ^6-thiomorpholino)methyl)pyrimidin-2-yl)-2-((S)-1-methoxyethyl)pyridin-3-yl)-10,10-dimethyl-5,7-dioxo-6^1,6^2,6^3,6^4,6^5,6^6-hexahydro-1^1H-8-oxa-2(4,2)-thiazola-1(5,3)-indola-6(1,3)-pyridazinacycloundecaphane-4-yl)-2-methylcyclopropane-1-carboxamide] has an IC50 (SW480 (G12V); Homo sapiens) of 4.3 nM and an IC50 (AsPC-1 (G12D); [1]) of 1 nM.

`CCn1c(-c2cc(-c3cnc(CN4CCN(CCOC)CC4)nc3)cnc2[C@H](C)OC)c2c3cc(ccc31)-c1csc(n1)C[C@H](NC(=O)[C@H]1C[C@@H]1C)C(=O)N1CCC[C@H](N1)C(=O)OCC(C)(C)C2` (atropisomer, axis not shown) [Compound 58, (1S,2S)-N-((6^3S,4S,Z)-1^1-ethyl-1^2-(2-((S)-1-methoxyethyl)-5-(2-((4-(2-methoxyethyl)piperazin-1-yl)methyl)pyrimidin-5-yl)pyridin-3-yl)-10,10-dimethyl-5,7-dioxo-6^1,6^2,6^3,6^4,6^5,6^6-hexahydro-1^1H-8-oxa-2(4,2)-thiazola-1(5,3)-indola-6(1,3)-pyridazinacycloundecaphane-4-yl)-2-methylcyclopropane-1-carboximide] showed an IC50 (SW480 (G12V); Homo sapiens) of 30 nM and an IC50 (AsPC-1 (G12D); [1]) of 68 nM.

`CCn1c(-c2cc(-c3cc([C@H]4CN(C)CCO4)on3)cnc2[C@H](C)OC)c2c3cc(ccc31)-c1csc(n1)C[C@H](NC(=O)[C@H]1[C@H](C)[C@@H]1C)C(=O)N1CCC[C@H](N1)C(=O)OCC(C)(C)C2` (atropisomer, axis not shown) [Compound 26, (1r,2R,3S)-N-((6^3S,4S,Z)-1^1-ethyl-1^2-(2-((S)-1-methoxyethyl)-5-(5-((R)-4-methylmorpholin-2-yl)isoxazol-3-yl)pyridin-3-yl)-10,10-dimethyl-5,7-dioxo-6^1,6^2,6^3,6^4,6^5,6^6-hexahydro-1^1H-8-oxa-2(4,2)-thiazola-1(5,3)-indola-6(1,3)-pyridazinacycloundecaphane-4-yl)-2,3-dimethylcyclopropane-1-carboxamide] showed an IC50 (SW480 (G12V); Homo sapiens) of 2.5 nM and an IC50 (AsPC-1 (G12D); [1]) of 10 nM.

`CCn1c(-c2cc(-c3ccc(CN4CCOCC4)cc3)cnc2[C@H](C)OC)c2c3cc(ccc31)-c1csc(n1)C[C@H](NC(=O)[C@H]1[C@H](C)[C@@H]1C)C(=O)N1CCC[C@H](N1)C(=O)OCC(C)(C)C2` (atropisomer, axis not shown) [Compound 1, (1r,2R,3S)-N-((6^3S,4S,Z)-1^1-ethyl-1^2-(2-((S)-1-methoxyethyl)-5-(4-(morpholinomethyl)phenyl)pyridin-3-yl)-10,10-dimethyl-5,7-dioxo-6^1,6^2,6^3,6^4,6^5,6^6-hexahydro-1^1H-8-oxa-2(4,2)-thiazola-1(5,3)-indola-6(1,3)-pyridazinacycloundecaphane-4-yl)-2,3-dimethylcyclopropane-1-carboxamide] showed an IC50 (SW480 (G12V); Homo sapiens) of 1.3 nM and an IC50 (AsPC-1 (G12D); [1]) of 1.1 nM.

Compound `CCn1c(-c2cc(-c3cc(CNC)on3)cnc2C(C)OC)c2c3cc(ccc31)-c1csc(n1)CC(NC(=O)C1CC1C)C(=O)N1CCCC(N1)C(=O)OCC(C)(C)C2` [Compound 23′, (1S,2S)-N-((6^3S,4S,Z)-1^1-ethyl-1^2-(2-((S)-1-methoxyethyl)-5-(5-((methylamino)methyl)isoxazol-3-yl)pyridin-3-yl)-10,10-dimethyl-5,7-dioxo-6^1,6^2,6^3,6^4,6^5,6^6-hexahydro-1^1H-8-oxa-2(4,2)-thiazola-1(5,3)-indola-6(1,3)-pyridazinacycloundecaphane-4-yl)-2-methylcyclopropane-1-carboxamide] has an IC50 (SW480 (G12V)) of 1340 nM and an IC50 (AsPC-1 (G12D); AsPC-1 pancreas cell line) of 2370 nM.

Work on `CCn1c(-c2cc(-c3cnc(CN4CCOCC4)nc3)cnc2[C@H](C)OC)c2c3cc(ccc31)-c1csc(n1)C[C@H](NC(=O)[C@H]1C[C@@H]1C)C(=O)N1CCC[C@H](N1)C(=O)OCC(C)(C)C2` (atropisomer, axis not shown) [Compound 66, (1S,2S)-N-((6^3S,4S,Z)-1^1-ethyl-1^2-(2-((S)-1-methoxyethyl)-5-(2-(morpholinomethyl)pyrimidin-5-yl)pyridin-3-yl)-10,10-dimethyl-5,7-dioxo-6^1,6^2,6^3,6^4,6^5,6^6-hexahydro-1H-8-oxa-2(4,2)-thiazola-1(5,3)-indola-6(1,3)-pyridazinacycloundecaphane-4-yl)-2-methylcyclopropane-1-carboxamide] yielded an IC50 (SW480 (G12V); Homo sapiens) of 3.4 nM and an IC50 (AsPC-1 (G12D); [1]) of 10 nM.

In the case of `CCn1c(-c2cc(-c3cc(CN4CCOCC4)ccn3)cnc2[C@H](C)OC)c2c3cc(ccc31)-c1csc(n1)C[C@H](NC(=O)[C@H]1C[C@@H]1C)C(=O)N1CCC[C@H](N1)C(=O)OCC(C)(C)C2` (atropisomer, axis not shown) [Compound 11, (1S,2S)-N-((6^3S,4S,Z)-1^1-ethyl-1^2-(6′-((S)-1-methoxyethyl)-4-(morpholinomethyl)-[2,3′-bipyridin]-5′-yl)-10,10-dimethyl-5,7-dioxo-6^1,6^2,6^3,6^4,6^5,6^6-hexahydro-1^1H-8-oxa-2(4,2)-thiazola-1(5,3)-indola-6(1,3)-pyridazinacycloundecaphane-4-yl)-2-methylcyclopropane-1-carboxamide], the IC50 (SW480 (G12V); Homo sapiens) is reported as 3.2 nM and the IC50 (AsPC-1 (G12D); [1]) is reported as 2.1 nM.

With `CCn1c(-c2cc(-c3ccc(CN4CCC(F)(F)CC4)cc3)cnc2[C@H](C)OC)c2c3cc(ccc31)-c1csc(n1)C[C@H](NC(=O)[C@H]1C[C@@H]1C)C(=O)N1CCC[C@H](N1)C(=O)OCC(C)(C)C2` (atropisomer, axis not shown) [Compound 7, (1S,2S)-N-((6^3S,4S,Z)-1^2-(5-(4-((4,4-difluoropiperidin-1-yl)methyl)phenyl)-2-((S)-1-methoxyethyl)pyridin-3-yl)-1^1-ethyl-10,10-dimethyl-5,7-dioxo-6^1,6^2,6^3,6^4,6^5,6^6-hexahydro-1^1H-8-oxa-2(4,2)-thiazola-1(5,3)-indola-6(1,3)-pyridazinacycloundecaphane-4-yl)-2-methylcyclopropane-1-carboxamide] the IC50 (SW480 (G12V); Homo sapiens) was 159 nM and the IC50 (AsPC-1 (G12D); [1]) was 128 nM.

With `CCn1c(-c2cc(-c3cc(C4(C)CN(C)C4)on3)cnc2[C@H](C)OC)c2c3cc(ccc31)-c1csc(n1)C[C@H](NC(=O)[C@H]1[C@H](C)[C@@H]1C)C(=O)N1CCC[C@H](N1)C(=O)OCC(C)(C)C2` (atropisomer, axis not shown) [Compound 34, (1r,2R,3S)-N-((6^3S,4S,Z)-1^2-(5-(5-(1,3-dimethylazetidin-3-yl)isoxazol-3-yl)-2-((S)-1-methoxyethyl)pyridin-3-yl)-1^1-ethyl-10,10-dimethyl-5,7-dioxo-6^1,6^2,6^3,6^4,6^5,6^6-hexahydro-1^1H-8-oxa-2(4,2)-thiazola-1(5,3)-indola-6(1,3)-pyridazinacycloundecaphane-4-yl)-2,3-dimethylcyclopropane-1-carboxamide] the IC50 (SW480 (G12V); Homo sapiens) was 0.17 nM and the IC50 (AsPC-1 (G12D); [1]) was 0.16 nM.
